Laboratory results taken from US11208675B2, “Reaction accelerating agent” (Kikkoman Corporation, priority 2016, dated 2021).

How the values were obtained:
[1] = molecular target: T1, peroxidase PEO-301 (Toyobo Co., Ltd.) (Armoracia rusticana, UniProt P00433); test: Acceleration of hydrogen peroxide detection reaction mediated by peroxidase, using a small amount of peroxidase (Example 2); format: biochemical; conditions: 0.013 U/ml peroxidase; for acceleration of hydrogen peroxide detection reaction using peroxidase: as shown in Table 2, compared with not added; for Degree of progression of reaction (%) after 7.5 minutes / Degree of progression of reaction (%) after 10 minutes: ΔA divided by ΔA100%, 0.48% (w/v) compound in second reagent, 37° C.; for Degree of progression of reaction (%) after 7.5 minutes: 7.5 minutes after mixing second reagent with first reagent-B (2.5 minutes after addition of sample); for Degree of progression of reaction (%) after 10 minutes: 10 minutes after mixing second reagent with first reagent-B (5 minutes after addition of sample)
T1 construct: purchased Toyobo Co., Ltd. PEO-301
T1 sequence (P00433 31-338): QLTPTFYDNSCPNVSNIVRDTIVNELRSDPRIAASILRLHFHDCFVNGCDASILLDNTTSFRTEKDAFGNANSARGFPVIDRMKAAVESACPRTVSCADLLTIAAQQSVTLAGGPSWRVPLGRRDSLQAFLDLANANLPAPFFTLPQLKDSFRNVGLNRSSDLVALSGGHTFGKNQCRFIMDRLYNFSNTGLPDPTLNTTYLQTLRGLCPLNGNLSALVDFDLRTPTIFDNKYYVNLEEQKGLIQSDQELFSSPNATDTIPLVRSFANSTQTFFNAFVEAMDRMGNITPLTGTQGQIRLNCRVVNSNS
Experimental: Next, in this Example, the degree of acceleration of hydrogen peroxide detection reaction by the compound of the present invention was determined using a small amount of peroxidase.
A reagent for Hydrogen peroxide measurement having the following composition was prepared, and the measurement of hydrogen peroxide was carried out using Bio Majesty JCA-BM1650 (manufactured by JEOL Ltd.).
(§1) 100 mM MOPS-NaOH buffer solution, pH 6.5
(§2) 0.00012% (w/v) hydrogen peroxide
(§3) 30 mM MOPS-NaOH buffer solution, pH 6.5
(§4) 0.2% (w/v) n-dodecyl-β-D-maltoside (manufactured by Dojindo Laboratories)
0.013 U/ml peroxidase PEO-301 (Toyobo Co., Ltd.)
(§5) 0.023 mM 10-(carboxymethylaminocarbonyl)-3,7-bis(dimethylamino)phenothiazine sodium (DA-67, manufactured by Wako Pure Chemical Industries, Ltd.)
0.48% (w/v) of the compound of Comparative Example 2, any one compound of the present invention, or compound-free (Comparative Example 1) ion-exchange water as shown in Table 2
(§6) 8 μl of the second reagent was added to 96 μl of the first reagent-B, and the mixture was incubated at 37° C. for 5 minutes. Then, 24 μl of the sample was added thereto, and the quantitative reaction of hydrogen peroxide was allowed to progress at 37° C. for 5 minutes. The absorbance (A694 and A751) of the reaction solution for light at wavelengths of 694 nm and 751 nm was measured over time for 10 minutes after the mixing of the second reagent with the first reagent-B to determine the value of subtraction of A751 from A694, i.e., the value of A694/751. Subsequently, ΔA was calculated by subtracting, from A694/751, the value of (104/128) times A694/751 4.8 minutes after the mixing of the second reagent with the first reagent-B. Incidentally, 4.8 minutes after the mixing of the second reagent with the first reagent-B represents the time immediately before the addition of the sample.
Next, ΔA calculated in this Example was divided by ΔA100% defined in Example 1 to calculate the degree of progression of hydrogen peroxide detection reaction. The degree of progression of hydrogen peroxide detection reaction 7.5 and 10 minutes after the mixing of the second reagent with the first reagent-B (in other words, 2.5 and 5 minutes, respectively, after the addition of the sample) is shown in Table 2.

[2] = molecular target: T1, peroxidase PEO-301 (Toyobo Co., Ltd.); test: Hydrogen peroxide detection reaction mediated by peroxidase, completed using an excess of peroxidase (Example 1); format: biochemical; conditions: 0.067 U/ml peroxidase, 0.48% (w/v) compound in second reagent, 0.00012% (w/v) hydrogen peroxide, DA-67, pH 6.5, 37° C.; for ΔA9 min: ΔA of A694/751, 9 minutes after mixing second reagent with first reagent-A; for ΔA10 min: ΔA of A694/751, 10 minutes after mixing second reagent with first reagent-A (defined as ΔA100%)
Experimental: In this Example the amount of change in absorbance was determined when hydrogen peroxide detection reaction was completed using an excess of peroxidase.
A reagent for hydrogen peroxide measurement having the following composition (formulation) was prepared, and the measurement of hydrogen peroxide was carried out using Bio Majesty JCA-BM1650 (manufactured by JEOL Ltd.).
as §1, §2, §3, §4
0.067 U/ml peroxidase PEO-301 (Toyobo Co., Ltd.)
as §5
0.48% (w/v) of the compound of Comparative Example 2 (Wako Pure Chemical Industries, Ltd.), any one compound of the present invention (all from Tokyo Chemical Industry Co., Ltd.), or compound-free (Comparative Example 1) ion-exchange water as shown in Table 1
as §6, with “reagent-A,” for “reagent-B,”, “reagent-A” for “reagent-B”, “reagent-A.” for “reagent-B.”, “sample. ΔA 9 minutes and 10 minutes after the mixing of the second reagent with the first reagent-A (ΔA9 min and ΔA10 min) is shown in Table 1.” for “sample.”
In other words, it can be understood that the quantitative reaction of hydrogen peroxide was completed in 10 minutes after the mixing of the second reagent with the first reagent-A. Accordingly, ΔA10 min in each Comparative Example or the present invention was defined as ΔA when 100% of the quantitative reaction of hydrogen peroxide progressed under each condition (ΔA100%).

Row | Compound | acceleration of hydrogen peroxide detection reaction using peroxidase [1] | Degree of progression of reaction (%) after 7.5 minutes [1] [%] | Degree of progression of reaction (%) after 10 minutes [1] [%] | ΔA9 min [2] | ΔA10 min [2]
1 | O=C(O)c1cc2ccccc2c(N=Nc2c(O)cc(S(=O)(=O)O)c3ccccc23)c1O [2-hydroxy-1-(2-hydroxy-4-sulfo-1-naphthylazo)-3-naphthoic acid] | accelerated | 61 | 90 | 0.084 | 0.085
2 | Oc1ccc(N=Nc2ccccc2)cc1 [4-(Phenylazo)phenol, 4-(phenylazo)phenol] | accelerated | 69 | 90 | 0.122 | 0.122
3 | O=C([O-])c1cc(N=Nc2cccc([N+](=O)[O-])c2)ccc1O.[Na+] [Alizarin Yellow GG] | accelerated | 64 | 89 | 0.170 | 0.170
4 | COc1cc(N=Nc2cccc(S(=O)(=O)[O-])c2)ccc1NC(=O)Nc1ccc(N=Nc2ccc(O)c(C(=O)[O-])c2)cc1.[Na+].[Na+] [Direct Yellow 44] | accelerated | 64 | 89 | 0.228 | 0.228
5 | O=C([O-])C1=NN(c2ccc(S(=O)(=O)[O-])cc2)C(=O)C1N=Nc1ccc(S(=O)(=O)[O-])cc1.[Na+].[Na+].[Na+] (stereo not drawn) [Tartrazine, reference compound] | accelerated | 57 | 85 | 0.344 | 0.344
6 | Chrome Yellow | accelerated | 66 | 92 | 0.272 | 0.272
